# Structures can show the parent of a compound that is named as a salt. Where two headings read alike, the source gives them in different places.
# Tests used:
# [1] = target: neuronal nicotinic acetylcholine receptors; assay: [3H]-cytisine ligand-receptor binding assay (crude synaptic membranes from whole rat brain); details: for binding to the nicotinic acetylcholine receptor (in words): preferred compounds
# Protocol: For the purpose of identifying compounds as nicotinic acetylcholinergic agents which are capable of interacting with neuronal nicotinic acetylcholine receptors in the brain, a ligand-receptor binding assay was carried out as the initial screen. Compounds of the present invention were effective at interacting with neuronal nicotinic acetylcholine receptors as assayed for their ability to displace radioligand from neuronal nicotinic acetylcholine receptors labeled with [^3 H]-cytisine ([^3 H]-CYT).
# A. Protocol For Determination of Nicotinic Acetylcholine Receptor Binding Potencies of Ligands
# Binding of [^3 H]-CYT to nicotinic acetylcholine receptors was accomplished using crude synaptic membrane preparations from whole rat brain (Pabreza et al., Molecular Pharmacol., 1990, 39:9). Washed membranes were stored at -80° C. prior to use. Frozen aliquots were slowly thawed and resuspended in 20 volumes of buffer (containing: 120 mM NaCl, 5 mM KCl, 2 mM MgCl2, 2 mM CaCl2 and 50 mM Tris-Cl, pH 7.4 @4° C.). After centrifuging at 20,000×g for 15 minutes, the pellets were resuspended in 30 volumes of buffer. Homogenate (containing 125-150 μg protein) was added to triplicate tubes containing concentrations of test compound and [^3 H]-CYT (1.25 nM) in a final volume of 500 μL. Samples were incubated for 60 minutes at 4° C., then rapidly filtered through Whatman GF/B filters presoaked in 0.5% polyethylimine using 3×4 mL of ice-cold buffer. The filters were counted in 4 mL of Ecolume® (ICN). Nonspecific binding was determined in the presence of 10 μM (-)-nicotine and values were expressed as a percentage of total binding.
# [2] = tested on: neuronal nicotinic acetylcholine receptors in IMR-32 cells; assay: 86Rb+ efflux assay in IMR-32 neuroblastoma cells; format: cell-based, human; details: for IMR-32 % max: maximal response, percent relative to 100 μM (S)-nicotine
# Protocol: B. Protocols for the Determination of Functional Effects of Nicotinic Acetylcholine Receptor Ligands on Synaptic Transmission
# Experimental cells were seeded at a density of 500,000 cells/mL into a 24-well tissue culture dish. Plated cells were allowed to proliferate for at least 48 hours before loading with 2 μCi/mL of ^86 Rb^+ (35 Ci/mmol) overnigh at 37° C.
# [3] = Table 2, [3H]-cytisine binding, read-out: Binding
# [4] = Table 1, [3H]-cytisine 1.25 nM, 4° C., 60 min, Ki by Cheng and Prusoff, read-out: [^3 H]-Cyt Binding
# [5] = Table 1, inhibition of efflux elicited by 100 μM (S)-nicotine
Molecule,"Ki [1, 4]",also measured
"c1ccc(-c2cnc3cc([C@@H]4CCCN4)oc3c2)cc1 [Example 53, 2-((S)-pyrrolidinyl)-6-phenylfuro[3,2-b]pyridine dihydrochloride]",,"Ki [1, 3]: 335 nM"
"Cl.Cl.c1cc2cc([C@@H]3CCCN3)oc2cn1 [Example 9, 2-(2-(S)-pyrrolidinyl)furo[2,3-c]pyridine dihydrochloride]",250 nM,IMR-32 % max ([2]; Table 1): 83%
"Clc1ccc2oc([C@@H]3CCCN3)cc2n1 [Example 11, 5-chloro-2-(2-(S)-pyrrolidinyl)-furo[3,2-b]pyridine hydrochloride]",58 nM,
"Clc1ccc2oc([C@H]3N[C@@H]4CC[C@H]3C4)cc2n1 [Example 43, 2-((1R,4S)-2-aza-3-(S)-bicyclo[2.2.1]heptyl)-5-chloro-furo[3,2-b]pyridine dihydrochloride]",453 nM,
"CN1CCC[C@H]1c1cc2ncc(Br)cc2o1 [Example 47, 6-bromo-2-(1-methyl-2-(S)-pyrrolidinyl)furo[3,2-b]pyridine dihydrochloride]",38 nM,
"Cl.Clc1nc2cc([C@H]3CCCN3)oc2cc1Br [Example 49, 6-bromo-5-chloro-2-(2-(R)-pyrrolidinyl)furo[3,2-b]pyridine hydrochloride]",2.6 nM,"IMR-32 % Inhibition @ 10 μM [2, 5]: 10%; IMR-32 % max ([2]; Table 1): 1%"
"c1cc2cc(C34CCCN3CCC4)oc2cn1 [Example 17, 2-(Hexahydro-1H-7a-pyrrolizinyl)furo[2,3-c]pyridine dihydrochloride]",88 nM,
"Cc1ccc2oc([C@H]3CCCN3C)cc2n1 [Example 30, 5-methyl-2-(1-methyl-2-(R)-pyrrolidinyl)-furo[3,2-b]pyridinedihydrochloride]",101 nM,
"Clc1nc2cc([C@H]3CCCN3)oc2cc1C=Cc1ccncc1 [Example 58, 5-chloro-2-(2-(R)-pyrrolidinyl)-6-(2-(4-pyridylethenyl)furo[3,2-b]pyridine hydrochloride]",,"Ki [1, 3]: 0.31 nM; binding to the nicotinic acetylcholine receptor (in words) [1]: most potent binders"
"CN1CCC[C@@H]1c1cc2nc(Cl)ccc2o1 [Example 32, 5-chloro-2-(1-methyl-2-(R)-pyrrolidinyl)-furo[3,2-b]pyridinehydrochloride]",54 nM,
"Clc1ccc2oc(C34CCCN3CCC4)cc2n1 [Example 23, 5-Chloro-2-(hexahydro-1H-7a-pyrrolizinyl)furo[3,2-b]pyridinehydrochloride]",0.62 nM,binding to the nicotinic acetylcholine receptor (in words) [1]: most potent binders
"c1cnc2cc([C@H]3N[C@@H]4CC[C@H]3C4)oc2c1 [Example 41, 2-((1R,4S)-2-aza-3-(S)-bicyclo[2.2.1]heptyl)-furo[3,2-b]pyridine dihydrochloride]",81 nM,
"Clc1cc2oc([C@@H]3CCCN3)cc2nc1Cl [Example 25, 5,6-Dichloro-2-(2-(S)-pyrrolidinyl)furo [3,2-b]pyridine hydrochloride]",103 nM,
"Brc1cnc2cc([C@@H]3CCCN3)oc2c1 [Example 46, 6-bromo-2-(2-(S)-pyrrolidinyl)furo[3,2-b]pyridine dihydrochloride]",468 nM,
"c1cnc2oc([C@@H]3CCCN3)cc2c1 [Example 36, 2-(2-(S)-pyrrolidinyl)furo[2,3-b]pyridine hydrochloride]",611 nM,
"Fc1ccc2oc([C@H]3C[C@@H]4CC[C@H]3N4)cc2n1 (relative stereo) [Example 136, (±)-2-(7-aza-2-exo-bicyclo[2.2.1]heptyl)-5-fluorofuro[3,2-b]pyridine hydrochloride]",,"Ki [1, 3]: 2.4 nM"
"Cl.Cl.c1cc2cc([C@H]3CCCN3)oc2cn1 [Example 34, 2-(2-(R)-pyrrolidinyl)furo[2,3-c]pyridine dihydrochloride]",1710 nM,"IMR-32 % Inhibition @ 10 μM [2, 5]: 2.8%"
"c1cnc2cc([C@H]3CC[C@H]4CCCN43)oc2c1 [Example 18, endo-2-(Hexahydro-1H-3-(R)-pyrrolizinyl)furo[3,2-b]pyridine dihydrochloride]",38 nM,"IMR-32 % Inhibition @ (30 μM) ([2]; Table 1, inhibition of efflux elicited by 100 μM (S)-nicotine, 30 μM): 55%"
"Clc1cnc2oc([C@@H]3CCCN3)cc2c1 [Example 13, 5-chloro-2-(2-(S)-pyrrolidinyl)-furo[2,3-b]pyridine hydrochloride]",4440 nM,
"Clc1cnc2cc([C@@H]3CCCN3)oc2c1 [Example 7, 6-chloro-2-(2-(S)-pyrrolidinyl)-furo[3,2-b]pyridine dihydrochloride]",878 nM,

Molecule,"Ki [1, 4]",also measured
"CN1CCC[C@H]1c1cc2ccncc2o1 [Example 10, 2-(1-methyl-2-(S)-pyrrolidinyl)furo[2,3-c]pyridine dihydrochloride]",207 nM,
"c1cnc2cc([C@@H]3CC[C@H]4CCCN43)oc2c1 [Example 19, exo-2-(Hexahydro-1H-3-(S)-pyrrolizinyl)furo[3,2-b]pyridine dihydrochloride]",3950 nM,
"CN1CCC[C@@H]1c1cc2nc(Cl)c(Br)cc2o1 [Example 50, 6-bromo-5-chloro-2-(-1-methyl-2(R)-pyrrolidinyl)furo[3,2-b]pyridine hydrochloride]",46 nM,
"Cc1ccc2sc(C34CCCN3CCC4)cc2n1 [Example 27, dihydrochloride]",27 nM,
"Clc1ccc2oc([C@H]3C[C@@H]4CC[C@H]3N4)cc2n1 (relative stereo) [Example 135, (±)-2-(7-aza-2-exo-bicyclo[2.2.1]heptyl)-5-chlorofuro[3,2-b]pyridine hydrochloride]",,"Ki [1, 3]: 3.2 nM"
"CN1CCC[C@H]1c1cc2cccnc2o1 [Example 134, 2-(1-methyl-2-(S)-pyrrolidinyl)furo[2,3-b]pyidine hydrochloride]",,"Ki [1, 3]: 6.9 nM"
"CN1CCC[C@H]1c1cc2nccc(Cl)c2o1 [Example 51, 7-chloro-2-(1-methyl-2-(S)-pyrrolidinyl)furo[3,2-b]pyridine hydrochloride]",443 nM,
"Clc1cc2oc([C@H]3N[C@@H]4CC[C@H]3C4)cc2nc1Cl [Example 45, 2-((1R,4S)-2-aza-3-(S)-bicyclo[2.2.1]heptyl)-5,6-dichlorofuro[3,2-b]pyridine dihydrochloride]",205 nM,
"Clc1nc2cc([C@H]3CCCN3)oc2cc1-c1ccccc1 [Example 55, 2-(2-(R)-pyrrolidinyl)-5-chloro-6-phenyl furo[3,2-b]pyridinehydrochloride]",,"IMR-32 % max ([2]; Table 2): 32%; Ki [1, 3]: 0.16 nM; in vitro binding (in words) ([1]; Tables 1 and 2): potent in vitro binding; binding to the nicotinic acetylcholine receptor (in words) [1]: most potent binders"
"Cc1ccc2oc([C@@H]3CCCN3)cc2n1 [Example 5, 5-methyl-2-(2-(S)-pyrrolidinyl)furo[3,2-b]pyridine dihydrochloride]",355 nM,
"c1cnc2cc([C@H]3CC[C@@H]4CCCN43)oc2c1 [Example 20, exo-2-(Hexahydro-1H-3-(R)-pyrrolizinyl)furo[3,2-b]pyridine dihydrochloride]",397 nM,
"Cl.Nc1cccc(-c2cc3oc([C@H]4CCCN4)cc3nc2Cl)c1 [Example 57, 6-(3-aminophenyl)-5-chloro-2-(2-(R)-pyrrolidinyl)furo[3,2-b]pyridine hydrochloride]",,"IMR-32 % max ([2]; Table 2): 22%; Ki [1, 3]: 0.83 nM"
"CN1[C@@H]2CC[C@@H](C2)[C@H]1c1cc2nc(Cl)ccc2o1 [Example 44, 2-((1R,4t)-2-aza-3-(S)-bicyclo[2.2.1]heptyl)-5-chloro-2-methylfuro[3,2-b]pyridine dihydrochloride]",5 nM,
"5-chloro-2-(1-methyl-2-(S)-pyrrolidinyl)-6-(3-pyridyl)furo[3,2-b]pyridine hydrochloride [Example 59]",,"Ki [1, 3]: 672 nM"
"CN1CCC[C@H]1c1cc2ncc(-c3ccccc3)cc2o1 [Example 54, 2-(1-methyl-2-(S)-pyrrrolidinyl)-6-phenylfuro[3,2-b]pyridinedihydrochloride]",,"Ki [1, 3]: 104 nM"
"c1cnc2cc(CN3CCCC3)oc2c1 [Example 22, 1-Pyrrolidinylmethyl-(2-furo[3,2-b]pyridine)]",113 nM,
"CN1CCC[C@H]1c1cc2cnccc2o1 [Example 37, 2-(1-methyl-2-(S)-pyrrolidinyl)furo[3,2-c]pyridine dihydrochloride]",1760 nM,
"CN1CCC[C@@H]1c1cc2nc(Cl)c(Cl)cc2o1 [Example 40, 5,6-Dichloro-2-(1-methyl-2-(R)-pyrrolidinyl)furo[3,2-b]pyridine hydrochloride]",32 nM,
"CN1CCC[C@@H]1c1cc2nc(Cl)c(-c3ccccc3)cc2o1 [Example 56, 5-chloro-2-(1-methyl-2-(R)-pyrrolidinyl)-6-phenyl furo[3,2-b]pyridine hydrochloride]",,"Ki [1, 3]: 12.9 nM"
"CN1CCC[C@H]1c1cc2cc(Cl)cnc2o1 [Example 14, 5-chloro-2-(1-methyl-2-(S)-pyrrolidinyl)-furo[2,3-b]pyridinedihydrochloride]",181 nM,
